The text below walks through data of ChEMBL document CHEMBL1142830, “QSAR studies on structurally similar 2-(4-methanesulfonylphenyl)pyran-4-ones as selective COX-2 inhibitors: a Hansch approach” (Bioorg Med Chem Lett, 2005).

This test concerns the target T1, Prostaglandin G/H synthase 2 (Homo sapiens, UniProt P35354).
T1 sequence (P35354 whole entry): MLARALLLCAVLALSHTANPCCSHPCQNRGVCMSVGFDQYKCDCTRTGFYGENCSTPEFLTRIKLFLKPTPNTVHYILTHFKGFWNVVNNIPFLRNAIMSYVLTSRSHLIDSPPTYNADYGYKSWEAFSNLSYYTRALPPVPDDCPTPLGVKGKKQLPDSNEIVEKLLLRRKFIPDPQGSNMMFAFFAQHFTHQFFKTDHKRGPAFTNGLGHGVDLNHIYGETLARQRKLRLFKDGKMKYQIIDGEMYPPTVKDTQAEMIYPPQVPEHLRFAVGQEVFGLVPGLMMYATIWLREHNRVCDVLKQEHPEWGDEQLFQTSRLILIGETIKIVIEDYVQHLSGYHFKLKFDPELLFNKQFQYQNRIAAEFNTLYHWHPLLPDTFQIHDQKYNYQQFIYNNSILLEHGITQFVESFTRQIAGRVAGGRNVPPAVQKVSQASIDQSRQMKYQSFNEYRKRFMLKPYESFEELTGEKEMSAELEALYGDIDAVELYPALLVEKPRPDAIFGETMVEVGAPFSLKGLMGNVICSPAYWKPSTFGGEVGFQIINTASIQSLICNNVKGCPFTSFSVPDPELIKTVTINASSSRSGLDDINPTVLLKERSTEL
Kind of test: Inhibitory concentration for Cyclooxygenase-2 (Prostaglandin G/H synthase 2) in human whole blood. In kind it is tissue-based.

Regarding `Cc1cc(=O)c(Oc2ccc(OC(F)(F)F)cc2)c(-c2ccc(S(C)(=O)=O)cc2)o1`, the IC50 (as a rule, the concentration that gives 50% inhibition) was 2.45 µM.

`CS(=O)(=O)c1ccc(-c2occ(Cl)c(=O)c2-c2ccc(-c3ccccc3)c(F)c2)cc1` showed an IC50 of 87.9 µM. `Cc1cc(=O)c(Oc2ccc(Cl)cc2Cl)c(-c2ccc(S(C)(=O)=O)cc2)o1`: inhibition was half-maximal at 3.38 µM (IC50).
